Measured values as given in BigSolDB 2.1.

CCCCc1oc2ccc(NS(C)(=O)=O)cc2c1C(=O)c1ccc(OCCCN(CCCC)CCCC)cc1.Cl
solubility (mole fraction)
Conditions | in ethanol | in isopropanol | in methanol | in n-butanol | in n-propanol | in water
298.15 K | 0.00418 | 0.000681 | 0.0556 | 0.00177 | 0.00275 | 2.71e-05
303.15 K | 0.00461 | 0.000838 | 0.0592 | 0.00209 | 0.00353 | 2.73e-05
308.15 K | 0.00535 | 0.00106 | 0.061 | 0.00261 | 0.00433 | 3.09e-05
313.15 K | 0.00818 | 0.00119 | 0.077 | 0.00352 | 0.00563 | 3.57e-05
318.15 K | 0.0159 | 0.00185 | 0.0919 | 0.00509 | 0.00892 | 4.49e-05
323.15 K | 0.0362 | 0.00293 | 0.119 | 0.00805 | 0.0159 | 6.11e-05
